In data set [1] the target is T1, protease-activated receptor type 4 (PAR4) (Homo sapiens, UniProt Q96RI0).
T1 sequence (Q96RI0 18-385): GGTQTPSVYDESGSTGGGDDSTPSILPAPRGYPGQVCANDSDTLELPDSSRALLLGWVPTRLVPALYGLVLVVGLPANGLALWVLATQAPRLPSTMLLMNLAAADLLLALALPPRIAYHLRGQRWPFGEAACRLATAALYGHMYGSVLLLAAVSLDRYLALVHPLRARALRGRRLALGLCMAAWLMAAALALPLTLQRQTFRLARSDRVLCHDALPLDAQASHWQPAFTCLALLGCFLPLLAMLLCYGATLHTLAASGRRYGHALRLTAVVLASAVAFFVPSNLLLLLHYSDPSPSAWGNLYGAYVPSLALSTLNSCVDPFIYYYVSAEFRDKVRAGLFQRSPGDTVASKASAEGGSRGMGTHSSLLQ
The settings on record: Lee et al., J. Med. Chem. 2001; cited from earlier work.

The conditions of data set [2]: ACS patients, TRACER phase III trial; cited from earlier work.
The test system of a further data set is Saos-2 (HPV−) cells. The data set is described as follows: Cell proliferation/viability assay, Saos-2 cells. The format is cell-based. Particulars: Homo sapiens, 96 h; Saos-2, HPV-negative, 4 days; read-out: Saos-2 (HPV−) Proliferation IC50. Here is the method: (§1) Caski (catalog number CRL-1550), SiHa (catalog number HTB-35), C33A (catalog number HTB-31), Saos-2 (ATCC HTB-85), and Hela (catalog number CCL-2) cells were obtained from the American Type Culture Collection (ATCC). The human cervical carcinoma cell lines Caski. SiHa, Hela and C33A, and the human osteosarcoma cell line Saos-2, and the human keratinocyte cell line HaCaT were cultured in Dulbecco's Modified Eagle Medium (DMEM, Invitrogen catalog number 11965-092) supplemented with 10% fetal bovine serum. The colorectal carcinoma cell line HCT-116 was cultured in Roswell Park Memorial Institute-1640 Medium (Invitrogen catalog number 11875-093) supplemented with 10% FBS. All cells were incubated at 37° C. in a humidified atmosphere with 5% CO2 in air. To establish the SCHPV-18 cell line, one million primary neonatal human foreskin keratinocytes (Invitrogen, catalog no. C-001-5C), cultured in KBM Gold-keratinocvte cell basal medium (Lonza, catalog no. 192060), were electroporated with 5 μg HPV-18 plasmid DNA (ATCC catalog no. 45152D) using the Amaxa Nucleofector II on setting T-007. Cells were co-transfected with 2 μg plasmid pZSGreen1-N1 (Clontech catalog no. 632448) encoding G418 resistance, and cells were selected for four days in 100 μg/ml G418, after which selection was removed. Cells were maintained in culture six months prior to compound testing. Integration of the HPV 18 genome was confirmed by Southern blot. Control cells transfected in parallel with pZSGreen1-N1 alone became senescent four days after selection and the culture could not be expanded. SCHPV-18 cells were maintained in E medium (Fehrmann F, Laimins L A. Human papillomavirus type 31 life cycle: methods for study using tissue culture models. Methods Mol Biol 2005; 292:317-330).
(§2) For proliferation assays, cells were plated in white polystyrene 96-well plates (Costar catalog number 3917) for CellTiter Glo viability assays or 96-well special optics plates (Costar cat #3614) for CellTiter Blue viability assays. Cells were plated in the appropriate growth medium without antibiotics. Two hours after cell plating, a 200× compound stock diluted in DMSO was added to a final concentration of 0.5%. Plates were incubated at 37° C., for 4 days and then cell viability was assessed using either CellTiter Blue (Promega catalog number G8081) or CellTiter Glo (Promega catalog number G7572) according to the manufacturer's instructions. For the CellTiter Blue viability assay, data was collected using the SpectraMax Gemini EM (Molecular Devices) with an excitation wavelength of 530 nm and emission wavelength of 590 nm. For the CellTiter Glo viability assay, data was collected using the Envision Mulitlabel Reader (Perkin Elmer catalog number 2104-0010). To calculate IC50 and EC50 values, percent inhibition curves were fit using a four-parameter logistic formula [y=A+[…]], where A and B denote minimal and maximal % inhibition, respectively, C is the IC50 value, D is the Hill slope, and x represents compound concentration.
(§3) Table C, below, sets out the results obtained employing various compounds of the invention tested for their effects on proliferation of such cells. Caski or SiHa cells, transformed by HPV 16, Hela cells, transformed by HPV 18, or HPV-negative control cell lines (Saos-2 or C33a) were treated with various compounds. […] Unlike the HPV-negative Saos-2 or C33a cell lines, the HPV-transformed cell lines rely on the presence of HPV for their continued proliferation. Therefore, a comparison of IC50 values from HPV-transformed cell lines with IC50 values obtained from HPV-negative cell lines can be used to test for compound selectivity.

For the next data set, the system named is Caspase-3/-7 activity. The data set is described as follows: Apoptosis assay (Caspase-Glo 3/7) in HPV-transformed and HPV-negative cell lines. Type of data set: cell-based, human. The method, then:
Apoptosis is a cellular process in which a cascade of events, controlled by proteolytic cleavage events, results in chromatin condensation, blebbing of the cell membrane, fragmentation of cellular DNA, and cell death. Caspases 3 and 7 are enzymes which control initiation of the later stages of apoptosis. Caspase-3/-7 activity can therefore be used as a measure of induction of apoptosis in response to compound treatment. For caspase-3/7 activity assays, cells were plated in 96-well plates (Costar catalog no. 3917) in DMEM with 10% FBS two hours before compound treatment. Cells were treated with compounds in a final concentration of 0.5% DMSO, then the Caspase-Glo 3/7 Assay (Promega catalog no. G8090) was performed according to manufacturer's instructions. […] Luminescence was measured using the EnVision Multilabel Reader (Perkin Elmer catalog no. 2104-0010) with aperture diameter 6 mm, height 4.2 mm, and measurement time of 0.1 second per well.
Example 15 was tested in an apoptosis assay using three HPV-transformed cell lines (Caski, SiHa, and SCHPV-18) and four HPV-negative cell lines (HCT-116, HaCat, C33a, and Saos-2). The cell lines were treated with a range of concentrations of the compound and induction of Caspase-3/-7 activity was measured relative to vehicle (DMSO)-treated controls.

The subject of the next data set is C33A (HPV−) cells. The data set is described as follows: Cell proliferation/viability assay, C33A cells. Type of data set: cell-based. Particulars: Homo sapiens, C-33-A, 96 h; C33A, HPV-negative, 4 days; read-out: C33A (HPV−) Proliferation IC50. Here is the method:
as §1, §2, §3

A further data set relates to Caski (HPV16+) cells. The data set can be described thus: Cell proliferation/viability assay, Caski cells. Type of data set: cell-based. Particulars: Homo sapiens, Ca-Ski, 96 h, 4 days. The method, then:
as §1, §2, §3

The next data set deals with SiHa (HPV16+) cells. The data set is described as follows: Cell proliferation/viability assay, SiHa cells. The format is cell-based. The settings on record: Homo sapiens, 96 h, 4 days. The method, then: as §1, §2, §3
In the next data set the test system is HeLa (HPV18+) cells. The data set can be described thus: Cell proliferation/viability assay, HeLa cells. Type of data set: cell-based. The settings on record: Homo sapiens, 96 h, 4 days. The method, then: as §1, §2, §3

Regarding `CCOC(=O)c1ccc(-c2nn(Cc3ccccc3)c3ccccc23)cc1` [YD-3], in data set [1], the “inhibition of PAR4-dependent platelet activation” value was “selective and potent inhibitor”.
As to `CCOC(=O)N[C@@H]1CC[C@@H]2[C@@H](C1)C[C@H]1C(=O)O[C@H](C)[C@H]1[C@H]2/C=C/c1ccc(-c2cccc(F)c2)cn1` [vorapaxar], in data set [2], the cardiovascular events result is recorded as “did not significantly reduce cardiovascular events” and the “risk of major bleeding” value is given as “significantly increased the risk of major bleeding”.
Regarding `COc1ccc(-c2cc(C(F)(F)F)cc3nc(OC(F)F)cnc23)cc1Br` [Example 15, 5-(3-bromo-4-methoxyphenyl)-2-(difluoromethoxy)-7-(trifluoromethyl)quinoxaline], the IC50 was greater than 99.5 µM in the data set on Saos-2 (HPV−) cells; greater than 99.5 µM in the data set on C33A (HPV−) cells; 16.5 µM in the data set with Caski (HPV16+) cells; 12.9 µM in the data set with SiHa (HPV16+) cells; 18.2 µM in the data set on HeLa (HPV18+) cells. For the same molecule, the “increase in Caspase-3/-7 activity” value with Caspase-3/-7 activity (HPV-positive cell lines (Caski, SiHa, SCHPV-18), relative to vehicle (DMSO)-treated controls) is recorded as “greater than 10 fold”. The induction of apoptosis entry in the data set on Caspase-3/-7 activity (HPV-positive versus HPV-negative cell lines (HCT-116, HaCat, C33a, Saos-2)) was “selectively induced apoptosis in HPV-positive cell lines”.

The record behind these values is patent US10517870B2, “Aryl substituted bicycle heteroaryl compounds” (Bristol-Myers Squibb Company, priority 2015, dated 2019).
